According to PMC5749684, “Tetrahydrocarbazoles are a novel class of potent P-type ATPase inhibitors with antifungal activity” (PLoS ONE, 2018):
≈ marks a conversion by molar mass, not a printed value.

Legend:
[1] = target: T1, Mammalian SERCA (Oryctolagus cuniculus, UniProt P04191); experiment: ATP hydrolysis inhibition, SERCA; assay type: biochemical; settings: rabbit SERCA, racemic compounds, n = 3
T1 construct: Ca^2+ ATPase was provided in SR membranes purified by extraction with a low concentration of deoxycholate (DOC); from tissue; host or cells: sarcoplasmic reticulum membranes (rabbit)
T1 sequence (P04191 1-994 isoform P04191-2): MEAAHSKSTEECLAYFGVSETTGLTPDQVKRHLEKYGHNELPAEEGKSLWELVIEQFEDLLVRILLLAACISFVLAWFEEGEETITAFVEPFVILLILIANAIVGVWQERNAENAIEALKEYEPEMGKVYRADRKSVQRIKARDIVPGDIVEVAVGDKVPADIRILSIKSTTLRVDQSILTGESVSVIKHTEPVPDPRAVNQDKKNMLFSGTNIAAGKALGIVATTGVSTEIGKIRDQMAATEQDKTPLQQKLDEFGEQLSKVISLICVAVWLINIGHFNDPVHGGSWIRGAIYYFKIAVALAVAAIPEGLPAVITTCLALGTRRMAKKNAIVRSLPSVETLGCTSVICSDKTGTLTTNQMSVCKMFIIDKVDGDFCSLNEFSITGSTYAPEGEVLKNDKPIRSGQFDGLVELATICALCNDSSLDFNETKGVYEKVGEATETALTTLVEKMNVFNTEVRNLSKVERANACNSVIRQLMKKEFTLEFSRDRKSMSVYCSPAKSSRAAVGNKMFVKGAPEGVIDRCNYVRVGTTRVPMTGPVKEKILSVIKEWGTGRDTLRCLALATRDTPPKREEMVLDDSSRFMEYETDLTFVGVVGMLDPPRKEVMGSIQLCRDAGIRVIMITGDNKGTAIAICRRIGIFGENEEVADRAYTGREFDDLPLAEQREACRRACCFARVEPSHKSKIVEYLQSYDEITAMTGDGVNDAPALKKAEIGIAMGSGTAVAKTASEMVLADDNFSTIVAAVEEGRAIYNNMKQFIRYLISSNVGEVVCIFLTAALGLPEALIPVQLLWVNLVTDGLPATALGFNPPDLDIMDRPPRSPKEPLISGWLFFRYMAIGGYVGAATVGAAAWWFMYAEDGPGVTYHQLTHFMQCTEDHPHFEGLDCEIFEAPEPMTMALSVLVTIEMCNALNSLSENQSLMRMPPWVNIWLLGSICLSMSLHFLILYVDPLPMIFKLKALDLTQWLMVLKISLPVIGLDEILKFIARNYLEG
Description: (§1) All membrane batches were validated by determining ATPase activity, pH optimum and orthovanadate sensitivity. Sarco/endoplasmatic reticulum (SR) Ca^2+ ATPase was provided in SR membranes purified by extraction with a low concentration of deoxycholate (DOC) and was kindly provided by Claus E. Olesen and Jesper V. Møller, Aarhus University and prepared as described in [43]. The pig kidney Na^+,K^+-ATPase purification included a mild SDS treatment of isolated microsomes followed by a washing step and was kindly provided by Natalya Fedosova, Aarhus University and prepared as described in [44].
(§2) ATPase activity was determined by measuring the amount of liberated phosphate from ATP hydrolysis. The ATPase assay was performed in 96 well plates in a final reaction volume of 60 μL. 0.1–0.2 μg/well of DOC extracted SERCA membrane or the Na^+,K^+-ATPase was used, while 1–2.5 μg/well was used of the Pma1 membrane preparation. Reactions, including protein membrane preparation and various concentrations of exogenously added compounds, were conducted in the following buffers; Pma1 buffer: 17.5 mM MOPS-NaOH pH 7, 7 mM MgSO4, 44 mM KNO3 (vacuolar ATPase inhibitor), 22 mM NaN3 (mitochondrial ATPase inhibitor), 0.22 mM Na2MoO4 (acid phosphatase inhibitor); SERCA buffer: 9 mM MOPS-NaOH pH 7, 2.7 mM MgCl2, 0.1 mM CaCl2 and 72 mM KCl. Na^+,K^+-ATPase buffer: 30 mM MOPS-NaOH pH 7, 40 mM NaCl, 4 mM MgCl2 and 20 mM KCl. Reactions were initiated by the addition of Na-ATP to a final concentration of 2.5 mM (Pma1 and Na^+,K^+-ATPase) or 5 mM (SERCA), followed by 30 minutes incubation at 30°C. […] Absorption was measured at 860 nm after additional 30 minutes incubation at RT.

[2] = test system: Candida glabrata Cg003; experiment: microbe, parasite or virus in culture; assay type: cell-based; settings: for MIC: Nakaseomyces glabratus, CG003, 24 h, read-out: Growth inhibition MIC Candida glabrata Cg003
Experimental: Fungal isolates were purchased from American Type Culture Collection, except for C. glabrata strain Cg003, which was kindly provided by Julius Subik, Comenius University in Bratislava, Slovak Republic. […] Saccharomyces cerevisiae (ATCC 9763), Candida albicans (ATCC 90028), Candida albicans (SC5314), Candida glabrata (ATCC 90030), Candida glabrata (Cg003) and Candida krusei (ATCC 6258) were grown in Sabouraud broth (40 g/L D-glucose, 10 g/L peptone, pH 5.6) or YPD (10 g/L yeast extract, 20 g/L Bacto-peptone, 20 g/L glucose) medium to mid log phase, aliquoted into 20% (v/v) glycerol and cryopreserved as stocks at -80°C. For each growth assay, cells from these stocks were diluted in sterile water to OD600 = 0.025, which corresponds to a final starting inoculum of 0.5–2.5 x 10^5 CFU/mL. Growth assays were carried out by pipetting 3 μL compound dissolved in DMSO, 100 μL cell suspension and 97 μL 2 x RPMI media (20.8 g/L RPMI-1640 (Sigma-Aldrich catalog number R6504) 330 mM MOPS, 36 g/L glucose) into a microtiter plate and incubating for 24 h at 34°C, followed by OD measurement at 490 nm.

[3] = test system: Candida krusei ATCC 6258; experiment: Fungal growth inhibition, C. krusei; assay type: cell-based; settings: Pichia kudriavzevii, ATCC6258; MIC defined as 50% growth inhibition, 24 h, n = 3–6
Description: (§3) Fungal isolates were purchased from American Type Culture Collection, except for C. glabrata strain Cg003, which was kindly provided by Julius Subik, Comenius University in Bratislava, Slovak Republic. Cg003 is a clinical isolate, characterized to be resistant to fluconazole and itraconazole due to overexpression of the multidrug resistance efflux pumps Cdr1p and Cdr2p. Saccharomyces cerevisiae (ATCC 9763), Candida albicans (ATCC 90028), Candida albicans (SC5314), Candida glabrata (ATCC 90030), Candida glabrata (Cg003) and Candida krusei (ATCC 6258) were grown in Sabouraud broth (40 g/L D-glucose, 10 g/L peptone, pH 5.6) or YPD (10 g/L yeast extract, 20 g/L Bacto-peptone, 20 g/L glucose) medium to mid log phase, aliquoted into 20% (v/v) glycerol and cryopreserved as stocks at -80°C. For each growth assay, cells from these stocks were diluted in sterile water to OD600 = 0.025, which corresponds to a final starting inoculum of 0.5–2.5 x 10^5 CFU/mL. Growth assays were carried out by pipetting 3 μL compound dissolved in DMSO, 100 μL cell suspension and 97 μL 2 x RPMI media (20.8 g/L RPMI-1640 (Sigma-Aldrich catalog number R6504) 330 mM MOPS, 36 g/L glucose) into a microtiter plate and incubating for 24 h at 34°C, followed by OD measurement at 490 nm. The minimum inhibitory concentration (MIC) was defined as 50% growth inhibition of the microorganism as this measurement best represented the antifungal activity of the compounds. Standard errors were typically below 5%.

[4] = test system: Candida glabrata ATCC 90030; experiment: Fungal growth inhibition, C. glabrata ATCC 90030; assay type: cell-based; settings: Nakaseomyces glabratus, ATCC90030; MIC defined as 50% growth inhibition, 24 h, n = 3–6
Description: as §3

[5] = target: T2, Mammalian Na^+,K^+-ATPase (Sus scrofa, UniProt P05024); experiment: ATP hydrolysis inhibition, Na+,K+-ATPase; assay type: biochemical; settings: pig Na+,K+-ATPase, racemic compounds, n = 3
T2 construct: The pig kidney Na^+,K^+-ATPase purification included a mild SDS treatment of isolated microsomes; from tissue; host or cells: pig kidney microsomes, SDS-treated
Description: as §1, §2

Structure (SMILES): FC(F)(F)Oc1ccc2c3c([nH]c2c1)C(NCc1ccc(Br)cc1)CCC3 (stereo not shown) [Compound 7]
- IC50 [1]: 0.11 ± 0.06 µM
- MIC [2]: > 75 µM
- MIC [3]: 4.7 µM (≈ 2.06 µg/mL)
- MIC [4]: 15 µM (≈ 6.59 µg/mL)
- IC50 [5]: 0.38 ± 0.12 µM

Structure (SMILES): FC(F)(F)Oc1ccc2c3c([nH]c2c1)C(NCc1ccc(Cl)cc1)CCC3 (stereo not shown) [Compound 6]
- IC50 [1]: 0.09 ± 0.03 µM
- MIC [2]: > 75 µM
- MIC [3]: 7.5 µM (≈ 2.96 µg/mL)
- MIC [4]: 12.1 ± 7.9 µM (≈ 4.78 µg/mL)
- IC50 [5]: 0.72 ± 0.3 µM

Structure (SMILES): Cn1c2c(c3cc(Cl)ccc31)CCCC2NCc1ccc(-c2ccccc2)cc1 (stereo not shown) [Compound 11]
- IC50 [1]: > 20 µM
- MIC [2]: > 20 µM
- MIC [3]: > 20 µM
- MIC [4]: > 20 µM
- IC50 [5]: > 20 µM

Structure (SMILES): FC(F)(F)Oc1ccc2c3c([nH]c2c1)C(NCCOc1ccc(Cl)cc1)CCC3 (stereo not shown) [Compound 8]
- IC50 [1]: 0.26 ± 0.06 µM
- MIC [2]: > 75 µM
- MIC [3]: 12.9 ± 9.4 µM (≈ 5.48 µg/mL)
- MIC [4]: 5.3 ± 2.7 µM (≈ 2.25 µg/mL)
- IC50 [5]: 1.07 ± 0.38 µM

Structure (SMILES): FC(F)(F)Oc1ccc2[nH]c3c(c2c1)CCCC3NCc1ccc(-c2ccccn2)cc1 (stereo not shown) [Compound 9]
- IC50 [1]: 3.27 ± 1.89 µM
- MIC [2]: 23.7 µM (≈ 10.4 µg/mL)
- Antifungal activity against C. glabrata strain Cg003 (in words) ([2]; strain overexpresses efflux pumps Cdr1p and Cdr2p): exhibited antifungal activity
- MIC [3]: 7.5 ± 4.8 µM (≈ 3.28 µg/mL)
- MIC [4]: 7.5 µM (≈ 3.28 µg/mL)
- IC50 [5]: 9.76 ± 4.47 µM

Structure (SMILES): Clc1ccc2[nH]c3c(c2c1)CCCC3NCc1ccc(-c2ccccc2)cc1 (stereo not shown) [Compound 10]
- IC50 [1]: 5.54 ± 3.16 µM
- MIC [2]: > 75 µM
- MIC [3]: 6.8 ± 4.6 µM (≈ 2.63 µg/mL)
- MIC [4]: 21 ± 6.6 µM (≈ 8.13 µg/mL)
- IC50 [5]: 5.5 ± 2.74 µM

Structure (SMILES): CN1CCC(NC2CCCc3c2[nH]c2cc(OC(F)(F)F)ccc32)CC1 (stereo not shown) [Compound 5]
- IC50 [1]: 61.7 ± 18.8 µM
- MIC [2]: > 75 µM
- MIC [3]: 150 µM (≈ 55.1 µg/mL)
- MIC [4]: 46.5 ± 27 µM (≈ 17.1 µg/mL)
- IC50 [5]: 132 ± 35.2 µM

Structure (SMILES): NC1CCCc2c1[nH]c1cc(OC(F)(F)F)ccc21 (stereo not shown) [Compound 4]
- IC50 [1]: 1.55 ± 0.06 µM
- MIC [2]: 75 µM (≈ 20.3 µg/mL)
- MIC [3]: 66 ± 16 µM (≈ 17.8 µg/mL)
- MIC [4]: 23.7 µM (≈ 6.41 µg/mL)
- IC50 [5]: 37.2 ± 13.6 µM

Structure (SMILES): CN(Cc1ccc(-c2ccccc2)cc1)C1CCCc2c1[nH]c1ccc(Cl)cc21 (stereo not shown) [Compound 12]
- IC50 [1]: > 20 µM
- MIC [2]: > 20 µM
- MIC [3]: > 20 µM
- MIC [4]: > 20 µM
- IC50 [5]: 11.8 ± 6.8 µM
